Assay results published in US8796272B2, “Glycine transporter-inhibiting substances” (Taisho Pharmaceutical Co., Ltd, priority 2011, dated 2014).

Biological target: T1, human type 1 glycine transporter (GlyT1) (Homo sapiens, UniProt P48067)
T1 construct: T98G cells (glioma cells) expressing human type 1 glycine transporter (GlyT1) were used; endogenous in cells; host or cells: T98G cells (human glioma)
T1 sequence (P48067 1-706): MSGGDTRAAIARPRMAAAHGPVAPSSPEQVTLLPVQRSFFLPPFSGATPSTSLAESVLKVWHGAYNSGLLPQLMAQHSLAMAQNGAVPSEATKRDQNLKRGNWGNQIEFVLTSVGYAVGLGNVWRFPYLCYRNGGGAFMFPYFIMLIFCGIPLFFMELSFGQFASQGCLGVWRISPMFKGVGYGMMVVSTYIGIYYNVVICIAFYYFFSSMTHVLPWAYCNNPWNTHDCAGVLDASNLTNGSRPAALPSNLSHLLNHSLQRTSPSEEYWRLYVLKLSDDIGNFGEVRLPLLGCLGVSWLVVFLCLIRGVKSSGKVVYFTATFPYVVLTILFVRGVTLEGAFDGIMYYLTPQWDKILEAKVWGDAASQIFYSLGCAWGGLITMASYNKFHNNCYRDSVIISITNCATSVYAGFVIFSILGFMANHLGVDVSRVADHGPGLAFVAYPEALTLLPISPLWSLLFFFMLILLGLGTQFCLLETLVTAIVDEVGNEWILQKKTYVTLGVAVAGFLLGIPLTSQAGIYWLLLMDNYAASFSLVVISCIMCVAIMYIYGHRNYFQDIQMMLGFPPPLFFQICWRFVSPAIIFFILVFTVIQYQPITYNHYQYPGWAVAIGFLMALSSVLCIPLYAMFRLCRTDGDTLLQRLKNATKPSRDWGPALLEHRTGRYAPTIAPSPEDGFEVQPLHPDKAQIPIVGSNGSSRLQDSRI
Experiment: Glycine uptake inhibition experiment ([3H] glycine uptake)
Type: cell-based
Details: T98G cells (glioma cells) expressing human GlyT1; [3H] glycine 250 nM; 10-min pretreatment, 15 minutes at room temperature; read-out: glycine uptake inhibitory activity (IC50 value)
Description: A glycine uptake experiment was conducted in accordance with the method published in Neuron, 8, 927-935, 1992. In the experiment, T98G cells (glioma cells) expressing human type 1 glycine transporter (GlyT1) were used. The T98G cells were seeded in a 96-well plate at 2.0×10^4 cells/well and cultured overnight in a CO2 incubator. The test substance was dissolved in a 100% DMSO solution and then dissolved in a 10 mM HEPES buffer solution (pH 7.4) containing 150 mM sodium chloride, 1 mM calcium chloride, 5 mM potassium chloride, 1 mM magnesium chloride, 10 mM glucose and 0.2% bovine serum albumin. After removing the cell culture medium, the test substance was subjected to a 10-min pretreatment. Subsequently, the test substance and [^3H] glycine (final concentration: 250 nM) were added to the cells and reaction was performed at room temperature for 15 minutes. After the end of the reaction, the extracellular fluid was aspirated with a manifold to remove excess labeled glycine present outside the cells, and then the cells were lysed with a 0.5 M aqueous sodium hydroxide solution. The glycine content in the cells was determined by measuring the radioactivity in the cell lysate with a liquid scintillation counter. Glycine uptake in the presence of 10 μM ALX^5407 was defined as non-specific uptake, and the value calculated by subtracting the amount of the non-specific uptake from the total uptake in the absence of 10 μM ALX5407 was defined as specific uptake. In addition, glycine uptake inhibitory activity (IC50 value) was calculated from an inhibition curve at the concentrations of each test substance ranging from 10^−9 to 10^−5 M.
It should be noted that ALX^5407 is an HCl salt of N-[(3R)-3-([1,1′-biphenyl]-4-yloxy)-3-(4-fluorophenyl)propyl]-N-methylglycine.

Compound	IC50 [nM]
CC[C@H](C)[C@H]1CN(c2ncc(C3CC3)cn2)C(=O)N1CC(=O)Nc1cc(Cl)ccn1 [Compound 249]	18
CC(C)[C@H]1CN(c2ncc(C3CC3)cn2)C(=O)N1CC(=O)Nc1cc(C(F)(F)F)ccn1 [Compound 193]	22
CCc1cnc(N2C[C@H](C(C)C)N(CC(=O)Nc3ccc(C(F)(F)F)nc3)C2=O)nc1 [Compound 104]	240
CC(C)[C@H]1CN(c2ccc(C(F)(F)F)nc2)C(=O)N1CC(=O)Nc1cc(C(C)(C)C)no1 [Compound 103]	230
CC(C)[C@H]1CN(c2ncc(Cl)cn2)C(=O)N1CC(=O)Nc1cc(C(F)(F)F)ccn1 [Compound 62]	33
O=C(CN1C(=O)N(c2ncc(C(F)(F)F)cc2F)C[C@@H]1CC1CC1)Nc1cc(Cl)ccn1 [Compound 152]	43
CCOc1cnc(N2C[C@H]([C@@H](C)CC)N(CC(=O)Nc3cc(C4CC4)ccn3)C2=O)nc1 [Compound 250]	24
O=C(CN1C(=O)N(c2ccc(C(F)(F)F)nc2)C[C@@H]1CC1CCCCC1)Nc1cccc(C(F)(F)F)c1 [Compound 8]	660
CCOc1cnc(N2C[C@H]([C@@H](C)CC)N(CC(=O)Nc3cc(Cl)ccn3)C2=O)nc1 [Compound 248]	16
CC(C)[C@H]1CN(c2ccc(C(F)(F)F)nc2)C(=O)N1CC(=O)Nc1cncc(Cl)c1 [Compound 61]	53

Second part, the compound after the results:

IC50 [nM]	Compound
89	CC(C)[C@H]1CN(c2ccc(F)cn2)C(=O)N1CC(=O)Nc1cccc(C(F)(F)F)c1 [Compound 11]
74	CC(C)(C)[C@H]1CN(c2ccc(C(F)(F)F)nc2)C(=O)N1CC(=O)Nc1cccc(C(F)(F)F)c1 [Compound 13]
17	CCOc1cnc(N2C[C@H]([C@@H](F)CC)N(CC(=O)Nc3cc(C(F)(F)F)ccn3)C2=O)nc1 [Compound 220]
45	CCOc1ccc(N2C[C@H](C(C)C)N(CC(=O)Nc3cc(Cl)ccn3)C2=O)nc1 [Compound 186]
800	CC(C)[C@H]1CN(c2ccc(C(F)(F)F)nc2)C(=O)N1CC(=O)Nc1nnc(C(F)(F)F)s1 [Compound 54]
75	COC(C)(C)[C@H]1CN(c2ccc(C(F)(F)F)nc2)C(=O)N1CC(=O)Nc1cc(C(F)(F)F)ccn1 [Compound 148]
54	COc1cnc(N2C[C@H](C(C)C)N(CC(=O)Nc3cc(C(F)(F)F)ccn3)C2=O)nc1 [Compound 93]
600	CC(C)[C@H]1CN(c2ncc(F)cn2)C(=O)N1CC(=O)Nc1cc(Cl)ccn1 [Compound 188]
150	CCc1ccnc(NC(=O)CN2C(=O)N(c3cnc(C(F)(F)F)nc3)C[C@@H]2C(C)C)c1 [Compound 165]
71	O=C(CN1C(=O)N(c2ccc(C(F)(F)F)nc2)C[C@@H]1c1ccccc1)Nc1cccc(C(F)(F)F)c1 [Compound 12]
